Laboratory results as given in ChEMBL document CHEMBL4842327, “Cyclic mimetics of kinase-inhibitory region of Suppressors of Cytokine Signaling 1: Progress toward novel anti-inflammatory therapeutics” (Eur J Med Chem, 2021).
Activity calls are given as the source filed them. The rule behind the calls is not given here. Peptide text beside a SMILES is read from it. * marks the point of attachment. Acm = CC(=O)NC*

What was measured:
[1] = Cytotoxicity against mouse VSMC cells assessed as reduction in cell proliferation at 25 uM incubated for 24 hrs in DMEM medium containing 10% FBS by MTT assay; assay type: cell-based
[2] = biological target: Tyrosine-protein kinase JAK2 (Mus musculus) (UniProt Q62120); assay: Inhibition of JAK2 in mouse VSMC cells assessed as reduction in IFNgamma/IL6- induced STAT1 phosphorylation by Western blot analysis; assay type: cell-based
Chain of Tyrosine-protein kinase JAK2 (Mus musculus) (Q62120 whole entry): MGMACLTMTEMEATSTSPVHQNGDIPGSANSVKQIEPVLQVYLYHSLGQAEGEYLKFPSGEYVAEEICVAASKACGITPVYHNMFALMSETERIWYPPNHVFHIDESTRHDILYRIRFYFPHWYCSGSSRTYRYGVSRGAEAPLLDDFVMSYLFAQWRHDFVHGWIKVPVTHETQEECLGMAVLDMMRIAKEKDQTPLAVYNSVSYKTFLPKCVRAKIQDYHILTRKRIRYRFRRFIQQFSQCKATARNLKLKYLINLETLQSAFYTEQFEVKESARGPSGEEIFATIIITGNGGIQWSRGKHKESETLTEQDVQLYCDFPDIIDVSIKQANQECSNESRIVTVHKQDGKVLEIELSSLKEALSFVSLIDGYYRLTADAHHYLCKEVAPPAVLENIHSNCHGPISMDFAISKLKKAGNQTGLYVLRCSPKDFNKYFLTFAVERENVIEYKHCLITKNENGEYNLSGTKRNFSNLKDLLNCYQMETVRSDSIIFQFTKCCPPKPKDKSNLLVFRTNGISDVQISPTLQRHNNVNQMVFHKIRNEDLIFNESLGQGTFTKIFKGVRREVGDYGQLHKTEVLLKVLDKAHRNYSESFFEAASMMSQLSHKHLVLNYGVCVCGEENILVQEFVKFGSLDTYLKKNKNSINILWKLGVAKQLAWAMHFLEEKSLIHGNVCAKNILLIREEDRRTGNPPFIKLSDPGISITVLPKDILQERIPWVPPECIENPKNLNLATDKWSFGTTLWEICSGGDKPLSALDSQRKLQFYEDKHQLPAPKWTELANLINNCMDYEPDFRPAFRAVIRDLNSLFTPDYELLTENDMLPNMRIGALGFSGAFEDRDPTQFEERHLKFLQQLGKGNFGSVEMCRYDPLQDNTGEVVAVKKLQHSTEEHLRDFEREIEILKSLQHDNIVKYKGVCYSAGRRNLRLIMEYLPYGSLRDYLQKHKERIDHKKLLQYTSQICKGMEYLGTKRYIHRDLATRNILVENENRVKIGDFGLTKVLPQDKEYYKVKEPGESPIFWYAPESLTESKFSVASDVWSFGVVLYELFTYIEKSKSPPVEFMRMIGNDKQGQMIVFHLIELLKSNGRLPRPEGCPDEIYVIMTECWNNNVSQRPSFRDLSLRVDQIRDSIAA

[3] = biological target: Tyrosine-protein kinase JAK2 (Mus musculus) (UniProt Q62120); assay: Inhibition of JAK2 in mouse VSMC cells assessed as reduction in IFNgamma/IL6-induced JAK2 phosphorylation by Western blot analysis; assay type: cell-based
[4] = biological target: Tyrosine-protein kinase JAK2 (Mus musculus) (UniProt Q62120); assay: Inhibition of JAK2 in mouse VSMC cells assessed as reduction in IFNgamma/IL6-induced Ccl2 mRNA expression by quantitative real time PCR analysis; assay type: cell-based
[5] = biological target: Tyrosine-protein kinase JAK2 (Mus musculus) (UniProt Q62120); assay: Inhibition of JAK2 in mouse VSMC cells assessed as reduction in IFNgamma/IL6-induced Ccl5 mRNA expression by quantitative real time PCR analysis; assay type: cell-based
[6] = biological target: Tyrosine-protein kinase JAK2 (Mus musculus) (UniProt Q62120); assay: Inhibition of JAK2 in mouse VSMC cells assessed as reduction in IFNgamma/IL6-induced Cxcl10 mRNA expression by quantitative real time PCR analysis; assay type: cell-based
VSMC [7] = assay: Antioxidant activity in mouse VSMC cells assessed as reduction in IFNgamma/IL6-induced intracellular superoxide generation by DHE staining based fluorescence confocal microscopy analysis; assay type: functional, cell-based
RAW264.7 = assay: Antioxidant activity in mouse RAW264.7 cells assessed as reduction in IFNgamma/IL6-induced intracellular superoxide generation by DHE staining based fluorescence confocal microscopy analysis; assay type: functional, cell-based
VSMC [8] = assay: Antioxidant activity in IFNgamma/IL6-stimulated mouse VSMC cells assessed as reduction in Nox1 mRNA expression by quantitative real time PCR analysis; assay type: functional, cell-based
VSMC [9] = assay: Antioxidant activity in IFNgamma/IL6-stimulated mouse VSMC cells assessed as reduction in Nox4 mRNA expression by quantitative real time PCR analysis; assay type: functional, cell-based
VSMC [10] = assay: Antioxidant activity in IFNgamma/IL6-stimulated mouse VSMC cells assessed as upregulation of Sod1 mRNA expression by quantitative real time PCR analysis; assay type: functional, cell-based
VSMC [11] = assay: Antioxidant activity in IFNgamma/IL6-stimulated mouse VSMC cells assessed as upregulation of catalase mRNA expression by quantitative real time PCR analysis; assay type: functional, cell-based
[12] = Stability of the compound in 25% fetal calf serum assessed as enzyme-mediated compound degradation at 80 uM measured after 24 hrs by RP-HPLC analysis; assay type: ADME, cell-free, Bos taurus; settings: cattle, read-out: Drug degradation
[13] = Cytotoxicity against mouse VSMC cells assessed as reduction in cell viability at 25 uM incubated for 6 to 24 hrs in DMEM medium containing 0.5% FBS by MTT assay; assay type: cell-based; settings: time 6-24 hrs
[14] = biological target: Tyrosine-protein kinase JAK2 (Mus musculus) (UniProt Q62120); assay: Inhibition of JAK2 in mouse RAW264.7 cells assessed as reduction in IFNgamma/IL6-induced Ccl2 mRNA expression by quantitative real time PCR analysis; assay type: cell-based
[15] = biological target: Tyrosine-protein kinase JAK2 (Mus musculus) (UniProt Q62120); assay: Inhibition of JAK2 in mouse RAW264.7 cells assessed as reduction in IFNgamma/IL6-induced Ccl5 mRNA expression by quantitative real time PCR analysis; assay type: cell-based
[16] = biological target: Tyrosine-protein kinase JAK2 (Mus musculus) (UniProt Q62120); assay: Inhibition of JAK2 in mouse RAW264.7 cells assessed as reduction in IFNgamma/IL6-induced Cxcl10 mRNA expression by quantitative real time PCR analysis; assay type: cell-based
[17] = Stability of the compound in 25% fetal calf serum assessed as residual parent compound level at 80 uM measured after 42 hrs by RP-HPLC analysis; assay type: ADME, cell-free, Bos taurus; settings: cattle, read-out: Stabilty
VSMC [18] = assay: Inhibition of IFN-gamma/IL6-induced cell migration in mouse VSMC cells incubated for 45 hrs by scratch wound healing assay; assay type: functional, cell-based
[19] = biological target: Tyrosine-protein kinase JAK2 (Mus musculus) (UniProt Q62120); assay: Inhibition of JAK2 in mouse VSMC cells assessed as reduction in IFNgamma/IL6 induced STAT1 phosphorylation at 5 uM treated for 90 mins prior to cytokine stimulation and measured after 1 hr by DAPI staining based immunofluorescence confocal microscopy; assay type: cell-based; settings: time 150.0 min
[20] = biological target: Tyrosine-protein kinase JAK2 (Homo sapiens, UniProt O60674); assay: Binding affinity to N-terminal His-tagged human JAK2 catalytic domain (826 to 1132 residues) expressed in baculovirus-infected Sf21 cells by Microscale thermophoresis analysis
Chain of Tyrosine-protein kinase JAK2 (O60674 whole entry, the tested form may be a part): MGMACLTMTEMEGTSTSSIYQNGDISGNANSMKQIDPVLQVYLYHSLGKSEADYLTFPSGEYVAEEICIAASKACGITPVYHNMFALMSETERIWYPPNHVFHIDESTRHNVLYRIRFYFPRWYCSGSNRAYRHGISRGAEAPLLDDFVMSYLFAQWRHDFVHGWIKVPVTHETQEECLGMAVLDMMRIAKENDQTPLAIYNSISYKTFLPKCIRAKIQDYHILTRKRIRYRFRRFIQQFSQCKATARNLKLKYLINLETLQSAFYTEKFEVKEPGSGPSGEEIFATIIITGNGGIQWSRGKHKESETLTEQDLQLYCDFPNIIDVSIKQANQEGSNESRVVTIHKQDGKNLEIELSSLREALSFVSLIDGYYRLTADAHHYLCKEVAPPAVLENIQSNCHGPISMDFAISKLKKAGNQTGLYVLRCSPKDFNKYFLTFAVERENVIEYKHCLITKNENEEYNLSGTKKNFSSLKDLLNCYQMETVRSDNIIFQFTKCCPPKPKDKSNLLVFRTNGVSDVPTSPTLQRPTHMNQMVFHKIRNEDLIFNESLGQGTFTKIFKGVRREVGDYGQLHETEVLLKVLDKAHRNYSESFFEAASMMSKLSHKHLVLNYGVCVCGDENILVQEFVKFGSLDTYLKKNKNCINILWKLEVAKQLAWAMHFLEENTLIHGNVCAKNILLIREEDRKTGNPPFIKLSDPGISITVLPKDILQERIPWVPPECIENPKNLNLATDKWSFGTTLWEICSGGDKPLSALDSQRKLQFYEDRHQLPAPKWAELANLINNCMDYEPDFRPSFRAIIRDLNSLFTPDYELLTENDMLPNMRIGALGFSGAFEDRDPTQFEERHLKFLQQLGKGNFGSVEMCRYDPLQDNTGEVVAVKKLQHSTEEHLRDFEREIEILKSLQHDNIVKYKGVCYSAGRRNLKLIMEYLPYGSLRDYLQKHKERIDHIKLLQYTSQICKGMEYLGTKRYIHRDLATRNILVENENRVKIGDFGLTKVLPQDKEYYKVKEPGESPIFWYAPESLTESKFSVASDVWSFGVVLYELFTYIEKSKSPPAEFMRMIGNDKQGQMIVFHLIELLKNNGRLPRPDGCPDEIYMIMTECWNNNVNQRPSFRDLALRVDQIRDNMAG

[21] = biological target: Tyrosine-protein kinase JAK2 (Mus musculus) (UniProt Q62120); assay: Inhibition of JAK2 in mouse VSMC cells assessed as reduction in IFN-gamma/IL6 induced STAT1 nuclear translocation at 5 uM treated for 90 mins prior to cytokine stimulation and measured after 1 hr by DAPI staining based immunofluorescence confocal microscopy; assay type: cell-based; settings: time 150.0 min

Compound	inhibition [2]	inhibition [3]	inhibition [4]	inhibition [5]	inhibition [6]	metabolised at 24 h, 80 µM [12] [%]	inhibition [14]	inhibition [15]	inhibition [16]	inhibition [19] [%]	Kd [20] [µM]	Activity [1]	Activity (VSMC [7])	Activity (RAW264.7)	Activity (VSMC [8])	Activity (VSMC [9])	Activity (VSMC [10])	Activity (VSMC [11])	Activity [13]	inhibition (VSMC [18])	also measured
CC(=O)NCSC[C@@H]1NC(=O)[C@H]([C@@H](C)O)NC(=O)[C@@H](NC(C)=O)CC(=O)NCCCC[C@@H](C(=O)N[C@@H](Cc2cnc[nH]2)C(N)=O)NC(=O)[C@H](CCCNC(=N)N)NC(=O)[C@H](Cc2cccc3ccccc23)NC(=O)[C@H]([C@@H](C)O)NC(=O)[C@H](CCC(N)=O)NC(=O)[C@H](CCCNC(=N)N)NC1=O						20						Non-Toxic							Non-Toxic		remaining at 42 h, 80 µM [17]: 40%
CC(=O)NCSC[C@@H]1NC(=O)[C@H]([C@@H](C)O)NC(=O)[C@H](NC(C)=O)CC(=O)NCCCC[C@@H](C(=O)NC(Cc2cnc[nH]2)C(N)=O)NC(=O)[C@@H](CCCNC(=N)N)NC(=O)[C@H](Cc2cccc3ccccc23)NC(=O)[C@H]([C@@H](C)O)NC(=O)[C@H](CCC(N)=O)NC(=O)[C@@H](CCCNC(=N)N)NC1=O (stereo not given in full)	Active	Active	Active	Active	Active		Active	Active	Active	65	35		Active	Active	Active	Active	Active	Active		Active	inhibition [21]: 65%
CC(=O)NCSC[C@@H]1NC(=O)[C@H]([C@@H](C)O)NC(=O)[C@@H](NC(C)=O)CC(=O)NCCCC[C@@H](C(=O)NC(Cc2cnc[nH]2)C(N)=O)NC(=O)[C@@H](CCCNC(=N)N)NC(=O)[C@H](Cc2ccccc2)NC(=O)[C@H]([C@@H](C)O)NC(=O)[C@H](CCC(N)=O)NC(=O)[C@@H](CCCNC(=N)N)NC1=O (stereo not given in full)	Active	Active	Active	Active	Active		Active	Active	Active	65	44		Active	Active	Active	Active	Active	Active		Active	inhibition [21]: 65%

More lines, main results first:

inhibition [2]	inhibition [3]	inhibition [4]	inhibition [5]	inhibition [6]	metabolised at 24 h, 80 µM [12] [%]	inhibition [14]	inhibition [15]	inhibition [16]	inhibition [19] [%]	Kd [20] [µM]	Compound	Activity [1]	Activity (VSMC [7])	Activity (RAW264.7)	Activity (VSMC [8])	Activity (VSMC [9])	Activity (VSMC [10])	Activity (VSMC [11])	Activity [13]	inhibition (VSMC [18])	also measured
Active	Active	Active	Active	Active	50	Active	Active	Active			CC(=O)NCSC[C@H](NC(=O)[C@@H](NC(=O)[C@H](CC(=O)O)NC(C)=O)[C@@H](C)O)C(=O)N[C@@H](CCCNC(=N)N)C(=O)N[C@@H](CCC(N)=O)C(=O)N[C@H](C(=O)N[C@@H](Cc1ccccc1)C(=O)N[C@@H](CCCNC(=N)N)C(=O)N[C@@H](CO)C(=O)N[C@@H](Cc1cnc[nH]1)C(=O)O)[C@@H](C)O (Ac-DTC(Acm)RQTFRSH-OH)	Non-Toxic	Active	Active	Active	Active	Active	Active	Non-Toxic		
					40						CC(=O)NCSC[C@@H]1NC(=O)[C@H]([C@@H](C)O)NC(=O)[C@@H](NC(C)=O)CC(=O)NCCCC[C@@H](C(=O)N[C@@H](Cc2cnc[nH]2)C(N)=O)NC(=O)[C@H](CCCNC(=N)N)NC(=O)[C@H](Cc2ccccc2)NC(=O)[C@H]([C@@H](C)O)NC(=O)[C@H](CCC(N)=O)NC(=O)[C@H](CCCNC(=N)N)NC1=O	Non-Toxic							Non-Toxic		
